Test [1] concerns beta pancreatic INS-1 cells. Put plainly: Prevention of beta cells apoptosis (ssDNA apoptosis detection kit). Format: cell-based. Particulars: 1 h pre-incubation then 24 h in apoptotic conditions, drugs tested alone. Also on record: concentration or dose not given beside the values. Here is the method:
The beta pancreatic INS-1 cells have been selected for this study. The cells are cultured in complete medium, RPMI 1640 10 mM glucose supplemented with 1 mM sodium pyruvate, 50 μM 2-mercaptoethanol, 2 mM glutamine, 10 mM HEPES, 100 IU/mL penicillin, 100 μg/mL streptomycin and 10% heat-inactivated fetal calf serum (FCS), as described by Asfari et al. (23). INS-1 cells are plated (4.5×10^4 cells/well) in 96-well poly-ornithine coated plates and cultured at 37° C. in a humidified atmosphere of 95% air/5% CO2. The day after, cells are pre-incubated with the tested molecules for 1 h. Then, after a medium change, cells are cultured for 24 h in a medium containing the tested molecules and 30 mM glucose, 0.05 mM myristic acid, 25 ng/mL INF, 25 ng/mL TNF and 5 ng/mL IL.
The efficacy of compounds to prevent apoptosis is then evaluated by the highly specific apoptosis detection kit from Chemicon (Ref. APT225). This procedure is based on the detection of single-stranded DNA (ssDNA) which is a specific marker of apoptotic cells (24).
Results are expressed in optical density (OD) arbitrary unit and % of reduction of the apoptosis induced by apoptotic condition. Following a Dunnett t-test, all compounds showing a significant decrease in % of apoptotic cells compared to apoptotic control conditions are considered active.

Test [2] relates to human primary diabetic myotubes. Put plainly: Glucose uptake in human diabetic myotube primary cultures. It is filed as cell-based. To be noted: myotubes from a diabetic patient, 24 h pre-treatment. Here is the method: The myotubes from a diabetic patient were grown on HAM's F10-based media (Sigma, ref. N6908) supplemented with 15% of fetal bovine serum, 1 mM glutamine.
Myoblasts were seeded at 380,000 cells/well in 12-well plates. After 2 days of proliferation, the cells were placed in reduced serum conditions (2% horse serum) to induce differentiation. The myotubes were used after 5 days of differentiation.
Dulbecco's modified Eagle's medium (DMEM)-based media (Gibco, ref. 31053-028) supplemented with 2% heat-inactivated horse serum, 2% Glutamax (Gibco, ref. 35050) and washed for glucose uptake assays. Compounds were dissolved in DMSO to reach the desired final concentration prior to use.
The differentiated myotubes were treated for 24 h with the compositions of the invention before the assay.
Before the initiation of glucose uptake, the cells were deprived of serum and glucose. A deprivation was first performed in DMEM media containing reduced glucose (1 g/L) and no serum. After adding the compounds at the desired concentrations, the cells were incubated at 37° C. during 2 h30. […] A subsequent glucose and serum deprivation was performed in HBS buffer at 37° C. for 2 hours. The cells were treated with a mixture of 2-[^3H]deoxyglucose 10 Ci/mM+2-deoxy-D-glucose at 10 μM for 30 min. […] The cell lysates were transferred into scintillation vials for the measurement of radioactivity with a MicroBeta counter.

In test [3] the test system is TNFα-induced insulin resistant 3T3-L1 differentiated adipocytes. Put plainly: Glucose uptake in TNFα-induced insulin resistant 3T3-L1 differentiated adipocytes. It is filed as cell-based. To be noted: for enhancement of glucose uptake: drug alone, vs non-treated insulin-resistant cells (TNFα); for enhancement of glucose uptake, combination with metformin: ifenprodil 3.3 nM and metformin 100 μM, combined or alone at the same concentrations. Here is the method:
3T3L1 fibroblasts were maintained in DMEM 4.5 g/L glucose supplemented with 5% calf serum donor, 5% newborn calf serum, 100 U/mL penicillin, and 100 μg/mL streptomycin at 37° C. under a 10% CO2 atmosphere. Cells were grown on 24-well plates at a density of 2560 cells/well in 0.5 mL of growth medium (DMEM 4.5 g/L glucose supplemented with 10% FCS, 100 U/mL penicillin, and 100 μg/mL streptomycin). […] Fresh media were replaced after two days.
Glucose uptake was measured by quantification of incorporated radiolabeled glucose, after an incubation step with 2-deoxy-D[1,2^3H] glucose for 5 min. Glucose uptake was arrested by two washing steps in ice-cold PBS 1×, then were solubilized in 0.1N NaOH for 30 min. Cell-associated radioactivity was then counted using a MicroBeta counter after adding 600 μL per well of scintillant (Optiphase SuperMix3).
In parallel, protein quantification was determined by a colorimetric assay derived from the Lowry method. Results are expressed in nmol of glucose incorporated/5 mn/mg of protein and in % of control or basal condition (100%).

Another test has as its system hepatocytes. Put plainly: Glucose production by hepatic cells. It is filed as cell-based, rat. Particulars: long-term, 0.01 μM (10 nM). Here is the method:
Hepatocytes are isolated from 24 h-fasted male Wistar rats (200-250 g body weight) by ex situ liver perfusion in the presence of collagenase. Cell viability is validated by a trypan blue exclusion test. […] After plating, the medium is removed and cells are cultured for 16 h in RPMI medium without glucose (supplemented with the tested drugs for long-term evaluation). The following day, hepatic glucose production is assessed in Krebs-Ringer Bicarbonate HEPES buffer (KRBH; pH 7.4) in the presence of the neoglucogenic substrates (lactate 10 mM and pyruvate 1 mM) and the tested molecules for 4 h (short-term).
Supernatants are collected and glucose concentrations are determined using a glucose oxidase kit (Instrumentation Laboratory 0018250840). In parallel, protein quantification is performed using the colorimetric Lowry method.
Results are expressed in nmol glucose/mg protein and % of control condition (KLP: KRBH containing lactate and pyruvate).

Turning to `CC(C(O)c1ccc(O)cc1)N1CCC(Cc2ccccc2)CC1` (stereo not shown) [ifenprodil], the “Percentage of apoptosis reduction” value in test [1] worked out at 54%. Further, the “enhancement of glucose uptake” value is “improvement” in test [2] (0.1 μM); “improvement” in test [2] (1 μM); “improvement” in test [3] (10 nM); “improvement” in test [3] (100 nM); “+140%” in test [3] (1 μM). For the same compound, the “enhancement of glucose uptake, combination experiment” value in test [3] (drugs combined at a dose as low as 3.3 nM, or used individually, vs TNFα cells, Dunnett's test) was “No significant effect”. Further, the “enhancement of glucose uptake, combination with metformin” value in test [3] (vs TNFα cells) is recorded as “No significant effect”; in test [3] (vs TNFα cells, listed as Ifenprodil), “does not lead to any significant improvement”. Besides, in the test with hepatocytes, the “reduction of glucose production” value is given as −22%.

Source of the values: patent US10596160B2, “Compositions, methods and uses for the treatment of diabetes and related conditions by controlling blood glucose level” (PHARNEXT, priority 2012, dated 2020).
